Values after ≈ are worked out from the molar mass of the structure shown. Where only a bound is given, the exact number is not on record here.

A word on the solubility (thermodynamic): it is solubility found after equilibrating the solid with the medium. As usually defined, the Solubility is the dissolved amount per volume that the medium holds. Lower therefore signals a poorly soluble substance.

One series relates to Caco-2 cells. In words: Caco-2 permeability. In kind it is in vitro ADME. Particulars: for Caco-2 Efflux Ratio: B→A / A→B. On the procedure:
Caco-2 cells were maintained at 37 °C in a humidified incubator with an atmosphere of 5% CO2. The cells were cultured in Eagle's Minimum Essential Medium (EMEM) containing 20% fetal bovine serum (FBS) in 75 cm^2 flasks, supplemented with 100 units/ml of penicillin and 100 µg/mL of streptomycin. The Caco-2 cells were seeded onto inserts of a 96-well plate (HTS-Transwell inserts, surface area: 0.143 cm^2, Corning) at a cell density of 0.5 × 10^5 cells/insert. The culture medium was replaced every 2 days, and the cells were maintained for 7 days at 37 °C and 5% CO2. Caco-2 cell monolayers with trans epithelial electrical resistance (TEER) values greater than 400 Ω cm^2 were used for the subsequent assays. The permeability assay was initiated by adding an appropriate volume of HBSS/HEPES containing test compounds to either the apical (A to B) or basolateral (B to A) side of the monolayer, then adding the blank HBSS/HEPES buffer in the receiving compartment, the basolateral or apical side of the monolayer. The Caco-2 cell monolayers were then incubated for 2 h at 37 °C. To make a sample plate, fractions were collected from the basolateral side or apical side and quenched by adding onefold volume of acetonitrile with internal standard (2 µM warfarin) to each well. In a reference plate, the above HBSS/HEPES buffer containing test compounds were diluted with quenching solvent the same as that in the sample plate. 10 µL of supernatants were injected and analysis by UPLC/MS (Waters; Milford, MA). The test compound concentrations were quantified by comparing the sample well to the reference well via peak areas. The A→B (or B→A) apparent permeability coefficients (Papp, 10^–6 cm/s) of each compound were calculated using the equation, Papp = dQ/dt × 1/AC0. The flux of a drug across the monolayer was dQ/dt (µmol/s). The initial drug concentration on the apical or basolateral side was C0 (µM). The surface area of the monolayer was A (cm^2). The efflux ratio is the ratio of apparent permeability for a test compound in the basolateral to apical (B → A) direction relative to that in the A → B direction. All compounds were tested in triplicate.
(Caco-2 monolayers are a common model of the intestinal barrier.)

Series [1] is described as follows: Parallel artificial membrane permeability assay (PAMPA). In kind it is in vitro ADME. As for the experimental part: The assay was conducted using a Biomek FX lab automation workstation (Beckman Coulter, Inc., Fullerton, CA) with PAMPA evolution 96 command software (pION Inc., Woburn, MA). Test compound stock (10 mM in DMSO, 3 µL) was mixed with citrate phosphate buffered saline (597 µL) to make diluted test compound. Diluted test compound (150 µL) was transferred to a UV plate (pION Inc., Woburn, MA) and the UV spectrum (250–500 nm) was read as the reference plate. Each well of the donor plate in a PAMPA sandwich plate (pION Inc., Woburn, MA) contained a filter that was painted on one side with 4 µL GIT lipid (pION Inc., Woburn, MA) to form a membrane. Each well in the acceptor plate in a PAMPA sandwich, preloaded with magnetic stir bars, was filled with acceptor solution buffer (200 µL, pION Inc., Woburn, MA). The donor plate was filled with diluted test compound (180 µL). The combined PAMPA plate was placed on a pIon Gut-box™ and stirred for 30 min. The UV spectrum (250–500 nm) of the donor and the acceptor were read. The permeability coefficient and recovery were calculated using PAMPA evolution 96 command software (pION Inc., Woburn, MA) based on the whole spectrum measured from the reference plate, the donor plate, and the acceptor plate. All compounds were tested in triplicate.
Background: In PAMPA a lipid-coated filter parts donor from acceptor wells.

The next series in a line: Thermodynamic solubility. It counts as physicochemical. Particulars: for solubility thermodynamic: 37 °C, thermodynamic from solid. As for the experimental part:
Solubility was also evaluated in fasted (FaSSIF-V2) or fed (FeSSIF-V2) state simulated intestinal fluids. These media contain lipolysis breakdown products (glycerol monooleate and oleic acid) in addition to bile salt (sodium taurocholate) and phospholipid (lecithin) and were buffered to simulate approximate pH conditions found in the fasted (pH 6.5) or fed (pH 5.8) state small intestine. Control media (blank FaSSIF-V2 and FeSSIF-V2 buffers) lacking bile salt, phospholipid and lipolysis products were also investigated.
Compounds were weighed into individual screw cap polypropylene tubes and aqueous buffer, 0.1 N HCl, or simulated intestinal fluid added to provide a compound concentration of between 700 and 5000 μg/mL. Samples were vortexed, placed in a 37 °C incubator, and mixed on an orbital shaker (IKA® VXR basic Vibrax® orbital shaker) set at 600 rpm. Samples were regularly examined to ensure excess solid was present. Sampling was conducted after 1, 4, 6, and 24 h by centrifuging each sample at 10,000 rpm for 3 min, transferring a 200 µL aliquot into fresh Eppendorf tubes, and centrifuging again at 10,000 rpm for 3 min. Duplicate aliquots of the final supernatant were removed and diluted to an appropriate analytical concentration in 50% aqueous methanol prior to analysis by HPLC. HPLC analysis was conducted on a Waters 2695 HPLC system coupled to a Waters 2487 dual absorbance wavelength detector, analyzing at 254 nm. A Phenomenex Luna C18(2) column (3 µm, 50 × 2.0 mm i.d.) was used for analysis, with the column temperature maintained at 40 °C. Concentrations were quantified by comparison to a calibration curve prepared over the concentration range in 50% aqueous methanol. The mobile phase consisted of water, methanol, and 1% aqueous formic acid. Separations were conducted using a flow rate of 0.4 mL/min and an injection volume of 5 µL. Processed samples were maintained in the autosampler at a temperature of 10 °C.

`N#Cc1cc(NC(=O)C2c3ccccc3C(=O)N(CC(F)(F)F)C2c2cn[nH]c2)ccc1F` (racemic) [(r)-SJ311]: the figures for the “Permeability, Caco-2” value in the series on Caco-2 cells (Apical to Basal) and with Caco-2 cells (Basolateral to Apical) were 12.5 ± 0.7 10^–6 cm/s and 16.6 ± 2.0 10^–6 cm/s, respectively. The “Caco-2 Efflux Ratio” value with Caco-2 cells worked out at 1.34 ± 0.21. Moreover, the “Permeability, PAMPA” value in series [1] (pH 3) was 17 ± 2.3 10^–6 cm/s; in series [1] (pH 5), 15 ± 6.7 10^–6 cm/s; in series [1] (pH 7.4), 9.4 ± 7.0 10^–6 cm/s.
For the molecule `N#Cc1cc(NC(=O)[C@H]2c3ccccc3C(=O)N(CC(F)(F)F)[C@@H]2c2cccnc2)ccc1F` (racemic) [SJ733], the thermodynamic solubility was more than 3000 µg/mL in the series “Thermodynamic solubility” (0.1 N HCl, pH 1, simulated gastric fluid, strongly acidic conditions); 81 to 237 µM in the series “Thermodynamic solubility” (aqueous buffer, pH 7.4, 6.5, and 5.8 aqueous buffers).
Regarding `N#Cc1cc(NC(=O)C2c3ccccc3C(=O)N(CC(F)(F)F)C2c2cccnc2)ccc1F` (racemic) [(r)-SJ733], the “Permeability, Caco-2” value with Caco-2 cells (Apical to Basal) is listed as 9.4 ± 1.6 10^–6 cm/s; in the series on Caco-2 cells (Basolateral to Apical), 11.0 ± 1.6 10^–6 cm/s. Besides, the “Caco-2 Efflux Ratio” value in the series with Caco-2 cells is listed as 1.17 ± 0.04. For the same molecule, the “Permeability, PAMPA” value was 66 ± 3.5 10^–6 cm/s in series [1] (pH 3), 380 ± 7.2 10^–6 cm/s in series [1] (pH 5) and 350 ± 130 10^–6 cm/s in series [1] (pH 7.4).
For the molecule `N#Cc1cc(NC(=O)[C@H]2c3ccccc3C(=O)N(CC(F)(F)F)[C@@H]2c2cccnc2)ccc1F` [(+)-SJ733], the Solubility is listed as 6817 µM (≈ 3190 µg/mL) in “Thermodynamic solubility” (0.1 N HCl pH 1, 37°C, 1 h); 7321 µM (≈ 3430 µg/mL) in the series “Thermodynamic solubility” (0.1 N HCl pH 1, 37°C, 4 h); 7376 µM (≈ 3450 µg/mL) in the series “Thermodynamic solubility” (0.1 N HCl pH 1, 37°C, 6 h); 7891 µM (≈ 3700 µg/mL) in the series “Thermodynamic solubility” (0.1 N HCl pH 1, 37°C, 24 h); 81 µM (≈ 37.9 µg/mL) in the series “Thermodynamic solubility” (FaSSIF blank pH 6.5, 37°C, 1 h); 92 µM (≈ 43.1 µg/mL) in “Thermodynamic solubility” (FaSSIF blank pH 6.5, 37°C, 4 h). Besides, the Solubility in the series “Thermodynamic solubility” (FaSSIF blank pH 6.5, 37°C, 6 h) is reported as 96 µM (≈ 45 µg/mL); in “Thermodynamic solubility” (FaSSIF blank pH 6.5, 37°C, 24 h), 100 µM (≈ 46.8 µg/mL); in “Thermodynamic solubility” (FaSSIF-V2 pH 6.5, 37°C, 1 h), 199 µM (≈ 93.2 µg/mL); in the series “Thermodynamic solubility” (FaSSIF-V2 pH 6.5, 37°C, 4 h) it was 216 µM (≈ 101 µg/mL); in “Thermodynamic solubility” (FaSSIF-V2 pH 6.5, 37°C, 24 h), 207 µM (≈ 97 µg/mL); in the series “Thermodynamic solubility” (FeSSIF blank pH 5.8, 37°C, 1 h), 83 µM (≈ 38.9 µg/mL). The Solubility turned out to be 88 µM (≈ 41.2 µg/mL) in “Thermodynamic solubility” (FeSSIF blank pH 5.8, 37°C, 4 h); 100 µM (≈ 46.8 µg/mL) in the series “Thermodynamic solubility” (FeSSIF blank pH 5.8, 37°C, 6 h); 107 µM (≈ 50.1 µg/mL) in “Thermodynamic solubility” (FeSSIF blank pH 5.8, 37°C, 24 h); 237 µM (≈ 111 µg/mL) in “Thermodynamic solubility” (FeSSIF-V2 pH 5.8, 37°C, 1 h); 250 µM (≈ 117 µg/mL) in the series “Thermodynamic solubility” (FeSSIF-V2 pH 5.8, 37°C, 4 h); 248 µM (≈ 116 µg/mL) in the series “Thermodynamic solubility” (FeSSIF-V2 pH 5.8, 37°C, 24 h). Also, the Solubility is given as 207 µM (≈ 97 µg/mL) in “Thermodynamic solubility” (Phosphate buffer pH 7.4, 37°C, 1 h); 250 µM (≈ 117 µg/mL) in the series “Thermodynamic solubility” (Phosphate buffer pH 7.4, 37°C, 4 h); 250 µM (≈ 117 µg/mL) in “Thermodynamic solubility” (Phosphate buffer pH 7.4, 37°C, 24 h).

(Values after paper PMC7893776, “Selecting an anti-malarial clinical candidate from two potent dihydroisoquinolones” (Malaria Journal, 2021).)
